Inhibition data for nine compounds are collected here from patent EP4786487A1, “PEPTIDE” (Peptidream Inc, priority 2023, dated 2025).

One assay addresses T1, Myostatin (Homo sapiens, UniProt O14793).
T1 construct: active myostatin (also called mature myostatin) is a homodimer consisting of two C-terminal growth factor domains; purchased R&D systems 788-G8/CF
T1 sequence (O14793 267-375): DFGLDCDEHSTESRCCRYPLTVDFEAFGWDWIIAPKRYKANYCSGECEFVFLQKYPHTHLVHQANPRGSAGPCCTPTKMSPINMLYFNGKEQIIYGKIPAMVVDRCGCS
Put plainly: HepG2 reporter gene assay, Evaluation Procedure (2): 2-concentrations assay, myostatin inhibition. The class given is cell-based. To be noted: Myostatin 10 ng/mL, HepG2; for inhibition at 0.03 µM: peptide 30nM, read-out: Myostatin Inhibition 30nM; for inhibition at 0.1 µM: peptide 100nM, read-out: Myostatin Inhibition 100nM. The method, then:
(§1) The pGL3(CAGA)12-luc plasmid, namely a pGL3 vector (E1751, Promega) having a luciferase gene inserted downstream of a promoter sequence with 12 CAGA repeats attached, was transfected into HepG2 cell line (HB-8065, ATCC). The culture of HepG2 cell line (HB-8065, ATCC) was performed as in the Evaluation Procedure (1).
(§2) Myostatin (788-G8/CF, R&D systems) or GDF-11 (1958-GD-G8/CF, R&D systems) was added at a final concentration of 10 ng/mL. […] At this time, blank wells, in which neither myostatin, GDF-11, nor each peptide was added, were also prepared and incubated in a CO2 incubator (37°C, 5% CO2) for 20 to 24 hours.
(§3) The medium containing the cells was removed, and a mixture containing PBS (14190144, Thermo) and a chromogenic substrate One-Glo Luciferase Assay System (E6120, Promega) at a ratio of 1:1 was added to each well at 100 µL/well. This was stirred with a plate shaker for 5 min and transferred to a 384-well plate (3570, Corning) at a volume of 20 µL/well.
(§4) The plate was centrifuged at 1,000 × g for 1 min and the luminescence signal (700 nm luminescence) was measured using a plate reader (Envision 2104, PerkinElmer). Based on the measurement results, the inhibition rate at each peptide concentration was calculated. […]

The target of another assay is T2, GDF-11 (Homo sapiens, UniProt O95390).
T2 construct: purchased R&D systems 1958-GD-G8/CF
T2 sequence (O95390 299-407): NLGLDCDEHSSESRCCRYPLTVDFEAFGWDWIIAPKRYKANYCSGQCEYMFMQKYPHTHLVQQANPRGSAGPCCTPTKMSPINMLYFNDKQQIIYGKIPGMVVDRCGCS
Nature of the assay: HepG2 reporter gene assay, Evaluation Procedure (2): 2-concentrations assay, GDF-11 inhibition. The class given is cell-based. To be noted: GDF-11 10 ng/mL; for inhibition at 0.03 µM: HepG2, peptide 30nM, read-out: GDF11 Inhibition 30nM; for inhibition at 0.1 µM: HepG2, peptide 100nM, read-out: GDF11 Inhibition 100nM. As for the experimental part: as §1, §2, §3, §4

Positions of bridges follow the written chain, without caps; N, C: chain ends. Non-standard residues stand in square brackets, D forms with d. Residues, ends and D or L forms follow the SMILES beside them. NMeF = CN[C@@H](Cc1ccccc1)C(=O)O; Gly(N(CH2)3NH2) = NCCCNCC(=O)O; NMeA = CN[C@@H](C)C(=O)O; Dap = NC[C@H](N)C(=O)O; Sar = CNCC(=O)O

For `CC[C@H](C)[C@@H]1NC(=O)[C@H](Cc2ccccc2)N(C)C(=O)[C@H](Cc2ccc(O)cc2)NC(=O)[C@H](Cc2c[nH]c3ccccc23)NC(=O)[C@H](CCCNC(=N)N)NC(=O)CN(CCCN)C(=O)CSC[C@@H](C(N)=O)NC(=O)[C@H](Cc2ccccc2)N(C)C(=O)[C@H](C)N(C)C(=O)[C@H](CC(C)C)NC(=O)[C@H](Cc2ccccc2)N(C)C(=O)[C@H](CCCNC(=N)N)NC(=O)[C@H](Cc2ccc(O)cc2)NC(=O)[C@H](Cc2ccc(O)cc2)NC(=O)CN(C)C1=O` [Myostatin_000099_01ApG] ({CH2CO}-[Gly(N(CH2)3NH2)]RWY[NMeF]I[Sar]YYR[NMeF]L[NMeA][NMeF]C-NH2; thioether N-15), on Myostatin, the inhibition at 0.03 µM amounted to 19% and the inhibition at 0.1 µM is 65%. Moreover, on GDF-11, the inhibition at 0.03 µM was 0% and the inhibition at 0.1 µM stood at 0%.
With `CC[C@H](C)[C@@H]1NC(=O)[C@H](Cc2ccccc2)N(C)C(=O)[C@H](Cc2ccc(O)cc2)NC(=O)[C@H](Cc2c[nH]c3ccccc23)NC(=O)[C@H](CCCNC(=N)N)NC(=O)[C@H](CN)NC(=O)CSC[C@@H](C(N)=O)NC(=O)[C@H](Cc2ccccc2)N(C)C(=O)[C@H](C)N(C)C(=O)[C@H](CC(C)C)NC(=O)[C@H](Cc2ccccc2)N(C)C(=O)[C@H](CCCNC(=N)N)NC(=O)[C@H](Cc2ccc(O)cc2)NC(=O)[C@H](Cc2ccc(O)cc2)NC(=O)CN(C)C1=O` [Myostatin_000099_01Dap] ({CH2CO}-[Dap]RWY[NMeF]I[Sar]YYR[NMeF]L[NMeA][NMeF]C-NH2; thioether N-15), at Myostatin, the inhibition at 0.03 µM turned out to be 18% and the inhibition at 0.1 µM was 62%. On GDF-11, the inhibition at 0.03 µM was determined as 0% and the inhibition at 0.1 µM stood at 0%.
Consider `CC[C@H](C)[C@@H]1NC(=O)[C@H](Cc2ccccc2)N(C)C(=O)[C@H](Cc2ccc(O)cc2)NC(=O)[C@H](Cc2c[nH]c3ccccc23)NC(=O)[C@H](CCCNC(=N)N)NC(=O)[C@H](C)N(C)C(=O)CSC[C@@H](C(N)=O)NC(=O)[C@H](Cc2ccccc2)N(C)C(=O)[C@H](C)N(C)C(=O)[C@H](CC(C)C)NC(=O)[C@H](Cc2ccccc2)N(C)C(=O)[C@H](CCCNC(=N)N)NC(=O)[C@H](Cc2ccc(O)cc2)NC(=O)[C@H](Cc2ccc(O)cc2)NC(=O)CN(C)C1=O` [Myostatin_000099_01meA] ({CH2CO}-[NMeA]RWY[NMeF]I[Sar]YYR[NMeF]L[NMeA][NMeF]C-NH2; thioether N-15), for which, on Myostatin, the inhibition at 0.03 µM came out at 55% and the inhibition at 0.1 µM is 82%. Also, on GDF-11, the inhibition at 0.03 µM is 0% and the inhibition at 0.1 µM came out at 0%.
Turning to `CC[C@H](C)[C@@H]1NC(=O)[C@H](Cc2ccccc2)N(C)C(=O)[C@H](Cc2ccc(O)cc2)NC(=O)[C@H](Cc2c[nH]c3ccccc23)NC(=O)[C@H](C)NC(=O)[C@H](C)NC(=O)CSC[C@@H](C(N)=O)NC(=O)[C@H](Cc2ccccc2)N(C)C(=O)[C@H](C)N(C)C(=O)[C@H](CC(C)C)NC(=O)[C@H](Cc2ccccc2)N(C)C(=O)[C@H](CCCNC(=N)N)NC(=O)[C@H](Cc2ccc(O)cc2)NC(=O)[C@H](Cc2ccc(O)cc2)NC(=O)CN(C)C1=O` [Myostatin_000099_02A] ({CH2CO}-AAWY[NMeF]I[Sar]YYR[NMeF]L[NMeA][NMeF]C-NH2; thioether N-15), on Myostatin, the inhibition at 0.03 µM was 64% and the inhibition at 0.1 µM was found to be 89%. At GDF-11, the inhibition at 0.03 µM is 0% and the inhibition at 0.1 µM was 5%.
For the compound `CC[C@H](C)[C@@H]1NC(=O)[C@H](Cc2ccccc2)N(C)C(=O)[C@H](Cc2ccc(O)cc2)NC(=O)[C@H](Cc2c[nH]c3ccccc23)NC(=O)[C@H](CN)NC(=O)[C@H](C)NC(=O)CSC[C@@H](C(N)=O)NC(=O)[C@H](Cc2ccccc2)N(C)C(=O)[C@H](C)N(C)C(=O)[C@H](CC(C)C)NC(=O)[C@H](Cc2ccccc2)N(C)C(=O)[C@H](CCCNC(=N)N)NC(=O)[C@H](Cc2ccc(O)cc2)NC(=O)[C@H](Cc2ccc(O)cc2)NC(=O)CN(C)C1=O` [Myostatin_000099_02Dap] ({CH2CO}-A[Dap]WY[NMeF]I[Sar]YYR[NMeF]L[NMeA][NMeF]C-NH2; thioether N-15), at Myostatin, the inhibition at 0.03 µM is 50% and the inhibition at 0.1 µM is 82%. In addition, on GDF-11, the inhibition at 0.03 µM came out at 0% and the inhibition at 0.1 µM stood at 2%.
For `CC[C@H](C)[C@@H]1NC(=O)[C@H](Cc2ccccc2)N(C)C(=O)[C@H](Cc2ccc(O)cc2)NC(=O)[C@H](Cc2c[nH]c3ccccc23)NC(=O)[C@H](CCC(=O)O)NC(=O)[C@H](C)NC(=O)CSC[C@@H](C(N)=O)NC(=O)[C@H](Cc2ccccc2)N(C)C(=O)[C@H](C)N(C)C(=O)[C@H](CC(C)C)NC(=O)[C@H](Cc2ccccc2)N(C)C(=O)[C@H](CCCNC(=N)N)NC(=O)[C@H](Cc2ccc(O)cc2)NC(=O)[C@H](Cc2ccc(O)cc2)NC(=O)CN(C)C1=O` [Myostatin_000099_02E] ({CH2CO}-AEWY[NMeF]I[Sar]YYR[NMeF]L[NMeA][NMeF]C-NH2; thioether N-15), in that order: 58%, 83%, 0% and 9%.
With `CC[C@H](C)[C@@H]1NC(=O)[C@H](Cc2ccccc2)N(C)C(=O)[C@H](Cc2ccc(O)cc2)NC(=O)[C@H](Cc2c[nH]c3ccccc23)NC(=O)[C@H](CCCCN)NC(=O)[C@H](C)NC(=O)CSC[C@@H](C(N)=O)NC(=O)[C@H](Cc2ccccc2)N(C)C(=O)[C@H](C)N(C)C(=O)[C@H](CC(C)C)NC(=O)[C@H](Cc2ccccc2)N(C)C(=O)[C@H](CCCNC(=N)N)NC(=O)[C@H](Cc2ccc(O)cc2)NC(=O)[C@H](Cc2ccc(O)cc2)NC(=O)CN(C)C1=O` [Myostatin_000099_02K] ({CH2CO}-AKWY[NMeF]I[Sar]YYR[NMeF]L[NMeA][NMeF]C-NH2; thioether N-15), the figures for the inhibition at 0.03 µM on Myostatin and on GDF-11 were 35% and 0%, respectively. The inhibition at 0.1 µM is 73% on Myostatin and 0% on GDF-11.
With `CC[C@H](C)[C@@H]1NC(=O)[C@H](Cc2ccccc2)N(C)C(=O)[C@H](Cc2ccc(O)cc2)NC(=O)[C@H](Cc2c[nH]c3ccccc23)NC(=O)[C@@H](C)NC(=O)[C@H](C)NC(=O)CSC[C@H](C(N)=O)NC(=O)[C@H](Cc2ccccc2)N(C)C(=O)[C@H](C)N(C)C(=O)[C@H](CC(C)C)NC(=O)[C@H](Cc2ccccc2)N(C)C(=O)[C@H](CCCNC(=N)N)NC(=O)[C@H](Cc2ccc(O)cc2)NC(=O)[C@H](Cc2ccc(O)cc2)NC(=O)CN(C)C1=O` [Myostatin_99_2da_15dc_NH2] ({CH2CO}-A[dA]WY[NMeF]I[Sar]YYR[NMeF]L[NMeA][NMeF][dC]-NH2; thioether N-15), the inhibition at 0.03 µM on Myostatin amounted to 94%; at GDF-11, 15%. The inhibition at 0.1 µM at Myostatin stood at 98%; on GDF-11, 48%.
Taken in the same sequence, the figures for `CC[C@H](C)[C@@H]1NC(=O)[C@H](Cc2ccccc2)N(C)C(=O)[C@H](Cc2ccc(O)cc2)NC(=O)[C@H](Cc2c[nH]c3ccccc23)NC(=O)[C@H](CCCNC(=N)N)NC(=O)[C@H](C)NC(=O)CSC[C@H](C(N)=O)NC(=O)[C@H](Cc2ccccc2)N(C)C(=O)[C@H](C)N(C)C(=O)[C@H](CC(C)C)NC(=O)[C@H](Cc2ccccc2)N(C)C(=O)[C@H](CCCNC(=N)N)NC(=O)[C@H](Cc2ccc(O)cc2)NC(=O)[C@H](Cc2ccc(O)cc2)NC(=O)CN(C)C1=O` [Myostatin_000099_15dc] ({CH2CO}-ARWY[NMeF]I[Sar]YYR[NMeF]L[NMeA][NMeF][dC]-NH2; thioether N-15) were 69%, 0%, 89% and 12%.

As a reminder, the inhibition is the relative decrease from the control value, in per cent.
